Legend:
[1] = Single oral bolus of triolide in a fasted dog, blood ketone bodies and glucose (Example 2); format: in vivo, mongrel dog
Description: A mongrel dog (21 kg) was fasted overnight and given an oral bolus of triolide (R,R,R)-4,8,12-trimethyl-1,5,9-trioxadodeca-2,6,10-trione, 10 g) in gelatin. This amount of triolide is equivalent to 5% of the daily caloric requirement. Blood was sampled at 0, 15, 30, 45, and 60 minutes and every half hour thereafter for a total of six hours.
The blood samples were analyzed for glucose via enzymatic assay, and for acetoacetate and 3-hydroxybutyrate via GC-mass spectrometry (GC-MS) assay. As shown by FIG. 1, within 90 minutes, the blood concentrations of 3-hydroxybutyrate and acetoacetate reached 0.3 and 0.05 mM, and the total ketone bodies in the blood were 0.36 mM. After the fourth hour, the total ketone body concentration remained elevated at 0.24 mM. Glucose concentration in the blood dropped from 6.5 mM to 5 mM during the experiment.

[2] = Repeated feeding of meat plus triolide to a fasted dog, blood ketone bodies, glucose, tolerability (Example 3); format: in vivo, mongrel dog
Description: A mongrel dog (25.5 kg) was fasted overnight and fed a mixture of meat (111 g) and triolide ((R,R,R)-4,8,12-trimethyl-1,5,9-trioxadodeca-2,6,10-trione, 23.5 g). This amount of triolide is equivalent to 10% of the daily caloric requirement. Identical amounts of meat and triolide were given at 0, 120, 360 and 540 minutes. Blood was sampled at regular intervals for 12 hours.
The blood samples were analyzed for acetoacetate and 3-hydroxybutyrate. Within 30 minutes, the concentrations of 3-hydroxybutyrate and acetoacetate reached 0.85 and 0.15 mM, respectively. The total ketone bodies in the blood were 1.0 mM. After the third feeding of triolide, total ketone body concentration remained elevated and steady at about 0.6 mM. Glucose concentration in the blood remained within the normal range of 3.1 to 5.9 mM. […] By the next morning, the ketone body concentration in the blood had returned to the normal value of 0.02 mM.

[3] = four feedings of 23.5 g triolide, throughout the experiment
[4] = meat + triolide 23.5 g, within 30 minutes

blood concentration of 3-hydroxybutyrate ([1]; oral bolus 10 g triolide in gelatin (5% of daily caloric requirement), within 90 minutes, GC-MS): 300 µM
total ketone bodies in the blood ([1]; oral bolus 10 g triolide in gelatin, within 90 minutes): 0.36 mM
blood concentration of acetoacetate ([1]; oral bolus 10 g triolide in gelatin, within 90 minutes, GC-MS): 50 µM
total ketone body concentration ([1]; oral bolus 10 g triolide, after the fourth hour, remained elevated): 0.24 mM
Compound: C[C@@H]1CC(=O)O[C@H](C)CC(=O)O[C@H](C)CC(=O)O1 [triolide, (R,R,R)-4,8,12-Trimethyl-1,5,9-Trioxadodeca-2,6,10-Trione]
total ketone body concentration ([2]; after the third feeding of triolide, elevated and steady): about 0.6 mM
ketone body concentration in the blood ([2]; by the next morning, returned to the normal value): 0.02 mM
other clinical chemistry profiles [2, 3]: remained normal
signs of distress, unusual behavior, abnormal bodily functions (diarrhea, nausea, vomiting, frequent urination) [2, 3]: no signs of distress
blood concentration of 3-hydroxybutyrate ([2]; meat 111 g + triolide 23.5 g (10% of daily caloric requirement) at 0, 120, 360, 540 min, within 30 minutes): 850 µM
blood concentration of acetoacetate [2, 4]: 150 µM
total ketone bodies in the blood [2, 4]: 1.0 mM
